Assay results from patent publication US20200024574A1, “STEM CELL-DERIVED ASTROCYTES, METHODS OF MAKING AND METHODS OF USE” (MEMORIAL SLOAN-KETTERING CANCER CENTER, priority 2017, published 2020).
Entries after “also recorded” stand apart in the source; their conditions may differ.

Key:
Assay type in all cases: cell-based, human
[1] = test system: LTNSCs; assay: Differentiation of LTNSCs or neural rosettes (no NFIA induction) in media containing gliogenic molecules; details: short term, 14 days, no NFIA induction (FIG. 2B)
Experimental: These cells were also TUJ1 negative implying their homogenous nature of being nearly 100% neural stem cells (FIG. 2A). […] In the FBS condition, the expression of gliogenic factors was assessed and expression of SOX9 and NFIA was more enriched when cultured with FBS compared to the other treatments (FIG. 3).
(§1) For immunohistochemistry, cells were fixed in PBS containing 4% paraformaldehyde (EMS) for 10 minutes and permeabilized using PBS with 0.5% Triton-X for 5 minutes and stored in PBS with 0.2% Tween-20. The blocking solution contained 5% donkey serum in PBS with 0.2% Tween-20. Primary antibodies were diluted in the blocking solution and typically incubated overnight at 4 C. Secondary antibodies conjugated to Alexa 488, Alexa 555 or Alexa 647 (Thermo) were added to the cells and incubated for 30 minutes. Nuclei were identified by staining the cells with 4′,6-diamidino-2-phenylindole (DAPI, Thermo).

[2] = test system: NFIA-induced LTNSCs; assay: Astrocyte differentiation of NFIA-induced LTNSCs after doxycycline removal with glial differentiation factors; details: for expression of GFAP after removing the expression of NFIA: NFIA exposed cells, especially in the absence of FGF2 (FIG. 4C)
Experimental: Typically, regionally patterned neural stem cells are infected with lentiviral particles containing FUW-NFIA and FUW-M2-rtTA and induced with doxycycline (dox) one day after infection. Cells are kept in dox media for a minimum of 5 days and then switched to the astrocyte induction media (N2 media with 10 ng/ml HB-EGF (R&D Systems) and 10 ng/ml Leukemia inhibitory factor (Peprotech)) without dox for a minimum of 5 days. Glial progenitors and astrocytes can be isolated using CD44.
as §1

[3] = test system: neurogenic NSCs; assay: Western blot analysis of NFIA in NSCs treated with TGFβ1; details: TGFβ1 for 7 days, Western blot (FIG. 12K)
[4] = test system: neurogenic NSCs; assay: Cell cycle analysis by FACS on NSCs treated with TGFβ1; details: TGFβ1 for 48 hours, FACS (FIG. 12L)
Experimental: Cells were dissociated nuclei were isolated for cell cycle analysis. Propidium Iodine (250 ng/ml) was added to the cells and analyzed by FACS. A minimum of 10,000 events was analyzed per condition. Data acquired was imported and analyzed by the Flowjo software.

[5] = test system: neurogenic NSCs; assay: Immunofluorescence for NFIA and GFAP after TGFβ treatment followed by LIF medium; details: TGFβ followed by LIF-containing medium for 2 weeks (FIG. 12M)
Experimental: as §1

Row | Molecule | fate of LTNSCs: neurons (TUJ1/βIII-Tubulin) versus GFAP+ astrocytes [1] | GFAP expression (quantitative PCR) ([2]; 5 days dox then dox removal, +LIF versus +EGF/FGF2 (FIG. 10E)) | efficiency of astrocyte differentiation (GFAP+ cells, AQP4-H2B-GFP reporter) after dox removal ([2]; LIF compared with BMP4 or FBS) | expression of GFAP after removing the expression of NFIA [2] | expression of NFIA [3] | cells in the G1 phase of the cell cycle [4] | appearance of GFAP+ cells [5]
1 | LIF: leukemia inhibitory factor, glial-promoting factor | became neurons rather than GFAP+ astrocytes; also recorded: increased expression of the neuronal marker TUJ1 rather than the astrocyte marker GFAP | strongly induced | most efficient in generating GFAP+ cells and activating the AQP4-H2B-GFP reporter | enhanced the expression of GFAP | – | – | –
2 | TGFβ1: upstream activator of NFIA; transforming growth factor beta | – | – | – | – | induced the expression of NFIA | enriched for cells in the G1 phase of the cell cycle | resulted in the appearance of GFAP+ cells
3 | BMP4: gliogenic molecule, bone morphogenetic protein (protein, UniProt P12644 293-408, looked up) Bone morphogenetic protein 4: SPKHHSQRARKKNKNCRRHSLYVDFSDVGWNDWIVAPPGYQAFYCHGDCPFPLADHLNSTNHAIVQTLVNSVNSSIPKACCVPTELSAISMLYLDEYDKVVLKNYQEMVVEGCGCR | became neurons rather than GFAP+ astrocytes; also recorded: increased expression of the neuronal marker TUJ1 rather than the astrocyte marker GFAP | – | – | enhanced the expression of GFAP | – | – | –
